Data on 40 compounds can be found in ChEMBL document CHEMBL1127794, “Structure-activity relationships of 1,3-dialkylxanthine derivatives at rat A3 adenosine receptors” (J Med Chem, 1994).

The target in one test is T1, Adenosine receptor A3 (Rattus norvegicus, UniProt P28647).
T1 sequence (P28647 whole entry): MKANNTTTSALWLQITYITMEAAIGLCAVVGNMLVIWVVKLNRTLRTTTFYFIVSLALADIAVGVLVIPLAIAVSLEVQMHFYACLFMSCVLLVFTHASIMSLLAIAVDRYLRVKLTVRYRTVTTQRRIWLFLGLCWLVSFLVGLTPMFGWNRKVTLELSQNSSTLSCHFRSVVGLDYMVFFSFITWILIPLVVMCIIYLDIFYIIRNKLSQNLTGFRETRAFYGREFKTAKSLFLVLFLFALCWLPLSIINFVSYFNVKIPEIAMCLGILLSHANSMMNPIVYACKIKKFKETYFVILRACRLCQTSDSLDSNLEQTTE
The test is described as follows: Displacement of [125I]AB-MECA from membranes of CHO cells stably transfected with the rat adenosine A3 receptor cDNA. The class given is cell membranes.

Test [1] deals with Adenosine receptors; A1 & A3 (Rattus norvegicus) (UniProt P25099+P28647). The test is described as follows: Ratio of selectivity for A3 and A1 receptors at rat brain.
A further test addresses T2, Adenosine receptor A1 (Rattus norvegicus, UniProt P25099).
T2 sequence (P25099 whole entry): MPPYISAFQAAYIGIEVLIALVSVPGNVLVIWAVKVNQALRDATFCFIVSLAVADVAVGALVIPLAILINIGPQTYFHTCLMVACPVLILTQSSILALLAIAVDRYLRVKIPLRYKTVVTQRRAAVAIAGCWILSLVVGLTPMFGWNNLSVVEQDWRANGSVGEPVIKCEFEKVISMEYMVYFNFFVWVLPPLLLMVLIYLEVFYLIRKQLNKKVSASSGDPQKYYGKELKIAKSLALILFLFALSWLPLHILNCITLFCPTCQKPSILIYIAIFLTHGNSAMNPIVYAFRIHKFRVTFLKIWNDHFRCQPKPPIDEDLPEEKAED

The next test concerns the target Adenosine receptor A2a (Rattus norvegicus, UniProt P30543).
In test [2] the target is T3, Adenosine receptor A3 (Rattus norvegicus) (UniProt P28647).
T3 sequence (whole entry): T1 sequence (P28647 whole entry)
The test is described as follows: Tested for the binding affinity, for displacement of [125I]AB-MECA in membranes of CHO cells stably transfected with the rat A3-cDNA at the 10e-5 concentration (M). It counts as cell membranes.

Test [3] deals with T3, Adenosine receptor A3 (Rattus norvegicus). The test is described as follows: Tested for the binding affinity, for displacement of [125I]AB-MECA in membranes of CHO cells stably transfected with the rat A3-cDNA at the 10e-4 concentration (M). The class given is cell membranes.
The target of test [4] is Adenosine receptor A2a (Rattus norvegicus) (UniProt P30543). The test is described as follows: Tested for the binding affinity, for displacement of [3H]-CGS- 21680 in A2a receptors of rat striatal membrane at 10e-5 concentration (M).
Adenosine receptor A2a (Rattus norvegicus), sequence (P30543 whole entry): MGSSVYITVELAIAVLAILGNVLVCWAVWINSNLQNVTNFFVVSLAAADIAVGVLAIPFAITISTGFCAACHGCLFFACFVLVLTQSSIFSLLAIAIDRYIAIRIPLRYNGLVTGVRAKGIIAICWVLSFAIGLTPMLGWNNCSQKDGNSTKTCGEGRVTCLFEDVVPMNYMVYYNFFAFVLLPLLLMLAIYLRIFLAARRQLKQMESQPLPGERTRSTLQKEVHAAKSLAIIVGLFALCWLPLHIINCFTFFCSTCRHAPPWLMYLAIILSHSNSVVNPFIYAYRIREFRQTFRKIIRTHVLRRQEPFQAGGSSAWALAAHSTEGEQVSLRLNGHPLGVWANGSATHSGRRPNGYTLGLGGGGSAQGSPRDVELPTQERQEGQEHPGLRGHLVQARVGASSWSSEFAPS
In test [5] the target is T3, Adenosine receptor A3 (Rattus norvegicus). Description: Tested for the binding affinity, for displacement of [125I]AB-MECA in membranes of CHO cells stably transfected with the rat A3-cDNA at the 3*10e-5 concentration (M). It counts as cell membranes. Background: In a radioligand displacement assay an active substance lowers the binding of a labelled ligand.
Test [6] addresses Adenosine receptor A2a (Rattus norvegicus) (UniProt P30543). Description: Tested for the binding affinity, for displacement of [3H]-CGS- 21680 in A2a receptors of rat striatal membrane at 10e-4 concentration (M).
Test [7] deals with T4, Adenosine receptor A1 (Rattus norvegicus) (UniProt P25099).
T4 sequence (whole entry): T2 sequence (P25099 whole entry)
The test is described as follows: Tested for the binding affinity, for displacement of [3H]PIA in A1 receptors of rat brain membrane at 10e-4 concentration (M). The class given is cell membranes.

Adenosine receptor A2a, sequence (P30543 whole entry): as above

What is called Ki is the equilibrium dissociation constant of an inhibitor or competing ligand from its target. Lower therefore signals a stronger hold on the target. In the case of `CCCn1c(=O)c2[nH]c(C3CCCC3)nc2n(CCC)c1=O` [1,3-DIPROPYL-8-CYCLOPENTYLXANTHINE [DPCPX]], affinity at Adenosine receptor A3 was put at a Ki of 5.29 µM.

`CCCn1c(=O)c2nc(-c3ccc(OCC(=O)O)cc3)[nH]c2n(CCC)c1=S`: the Ratio in test [1] came to 126.

Turning to `CCCCn1c(=O)c2nc[nH]c2n(CCCC)c1=O`, the Ratio in test [1] was found to be 290.

Turning to `CCCn1c(=O)c2nc(-c3ccc(OCC(=O)O)cc3)[nH]c2n(CCC)c1=O`, the Ratio in [1] worked out at 1300.

For the compound `CCCCn1c(=O)c2nc(-c3ccc(OCC(=O)O)cc3)[nH]c2n(CCCC)c1=O`, in [1], the Ratio is 640.

On to `CCCn1c(=O)c2nc(-c3ccc(S(=O)(=O)O)cc3)[nH]c2n(CCC)c1=O`, for which, in test [1], the Ratio stood at 640.

With `Cn1c(=O)c2c(nc(/C=C/c3cccc(NC(=O)CCCC(=O)O)c3)n2C)n(C)c1=O`, the Ki turned out to be 289 µM on Adenosine receptor A3, 22.3 µM at Adenosine receptor A1 and 0.0099 µM at Adenosine receptor A2a. Also, in [1], the Ratio amounted to 13.

The compound `CCCn1c(=O)c2[nH]c(-c3ccc(S(=O)(=O)O)cc3)nc2n(CCC)c1=O` gave an inhibition constant Ki on Adenosine receptor A3 of 90.1 µM.

A word on the inhibition: it is the relative decrease from the control value, in per cent. The low end stands for a response near the control, the high end for a response far below the control. In test [2], `Cn1c(=O)c2c(nc(/C=C/c3cccc(Cl)c3)n2C)n(C)c1=O` registered an inhibition of 4.2%.

In the case of `CCCn1c(=O)c2nc(-c3ccc(C(=O)O)cc3)[nH]c2n(CCC)c1=O`, the Ki is 45.1 µM on Adenosine receptor A3 and 0.637 µM on Adenosine receptor A2a. For the same compound, in [1], the Ratio worked out at 230.

In the case of `CCCCn1c(=O)c2nc[nH]c2n(Cc2ccccc2)c1=O`, the Ki is 74.2 µM on Adenosine receptor A3, 0.668 µM at Adenosine receptor A1 and 1.2 µM on Adenosine receptor A2a. In test [1], the Ratio was 110.

Compound `CCCn1c(=O)c2nc(-c3ccc(/C=C/C(=O)O)cc3)[nH]c2n(CCC)c1=O` came in with an inhibition constant Ki on Adenosine receptor A2a of 0.8 µM.

For the compound `Cn1c(=O)c2[nH]c(CCCC(=O)O)nc2n(C)c1=O`, the inhibitory constant (Ki) on Adenosine receptor A3 worked out at 93.4 µM.

In the case of `CCCn1c(=O)c2nc(-c3ccc(OCC(=O)NCCNC(=O)CN(CC(=O)O)C(=O)OCC4c5ccccc5-c5ccccc54)cc3)[nH]c2n(CCC)c1=O`, the inhibition constant Ki on Adenosine receptor A3 stood at 21.7 µM. For the same compound, the Ratio in [1] was 1100.

On to `CCCn1c(=O)c2[nH]c(-c3ccc(OCC(=O)NCCN)cc3)nc2n(CCC)c1=O` [XANTHINE AMINE CONGENER], for which the affinity on Adenosine receptor A3 corresponds to a Ki of 29 µM.

For `Cn1c(=O)c2c(nc(/C=C/c3cccc(NC(=O)CCCCC(=O)O)c3)n2C)n(C)c1=O`, the figures for the Ki on Adenosine receptor A3, on Adenosine receptor A1 and at Adenosine receptor A2a were 234 µM, 6.51 µM and 0.00722 µM, respectively. Moreover, the Ratio in [1] stood at 36.

As to `Cn1c(=O)c2nc(CCCC(=O)O)[nH]c2n(C)c1=S`, the Ki stood at 9.36 µM at Adenosine receptor A3, 5.7 µM on Adenosine receptor A1 and 67.8 µM at Adenosine receptor A2a. In test [1], the Ratio turned out to be 1.6.

`Cn1c(=O)c2c(ncn2C)n(C)c1=O` came in with an inhibition in test [3] of 30.1%.

As for `CCCCn1c(=O)c2nc(CCCC(=O)O)[nH]c2n(CCCC)c1=O`, the Ki on Adenosine receptor A3 came out at 133 µM; on Adenosine receptor A2a, 113 µM. The Ratio in test [1] is 9.4.

As to `CCCCn1c(=O)c2nc(CCC(=O)O)[nH]c2n(CCCC)c1=O`, the inhibition constant Ki was 129 µM on Adenosine receptor A3, 7.11 µM on Adenosine receptor A1 and 71.7 µM at Adenosine receptor A2a. The Ratio in test [1] is 18.

With `CCCn1c(=O)c2[nH]c(-c3ccc(OCC(=O)NCCNC(=O)CNCC(=O)O)cc3)nc2n(CCC)c1=O`, the Ki on Adenosine receptor A3 came to 98 µM; at Adenosine receptor A1 it was 0.036 µM; at Adenosine receptor A2a it was 0.157 µM.

With `CCCn1c(=O)c2nc(-c3ccc(OCC(=O)NCCNC(=O)CNCC(=O)O)cc3)[nH]c2n(CCC)c1=O`, in test [1], the Ratio was found to be 2700.

Regarding `O=c1c2[nH]cnc2n(Cc2ccccc2)c(=O)n1Cc1ccccc1`, the inhibition in test [4] amounted to 3.6%; in [2] it was 20.3%. Moreover, in test [1], the Ratio is over 10.

For `CCCn1c(=O)c2nc(-c3ccc(OCC(=O)NCCNC(=O)CCC(=O)O)cc3)[nH]c2n(CCC)c1=O`, the inhibition constant Ki was determined as 40.6 µM on Adenosine receptor A3, 0.078 µM at Adenosine receptor A1 and 0.252 µM on Adenosine receptor A2a. Moreover, in test [1], the Ratio came out at 520.

In the case of `C=CCn1c(=O)c2nc(-c3ccc(OCC(=O)O)cc3)[nH]c2n(CC=C)c1=O`, the Ratio in test [1] was found to be 230.

For `CCCn1c(=O)c2nc(-c3ccc(OCC(=O)NCCNC(=O)CN(CC(=O)O)C(=O)CCC(=O)O)cc3)[nH]c2n(CCC)c1=O`, the figures for the inhibitory constant (Ki) at Adenosine receptor A3, on Adenosine receptor A1 and on Adenosine receptor A2a were 99.9 µM, 2.86 µM and 9.22 µM, respectively. For the same compound, the Ratio in [1] was 35.

On to `CCCn1c(=O)c2[nH]c(-c3ccc(OCC(=O)O)cc3)nc2n(CCC)c1=S`, for which the inhibitory constant (Ki) was 6.77 µM at Adenosine receptor A3 and 0.226 µM at Adenosine receptor A2a.

`CCCCn1c(=O)c2[nH]c(CCCCC(=O)O)nc2n(CCCC)c1=O`: the figures for the inhibition constant Ki on Adenosine receptor A1 and on Adenosine receptor A2a were 5.27 µM and 20 µM, respectively.

The compound `Cn1c(=O)c2c(ncn2Cc2ccccc2)n(C)c1=O` returned an inhibition in test [3] of 29.7%. Also, in test [1], the Ratio is over 10. The same compound came in with a Ki at Adenosine receptor A2a of 46 µM.

Regarding `CCCCn1c(=O)c2nc(/C=C/C(=O)O)[nH]c2n(CCCC)c1=O`, the inhibitory constant (Ki) at Adenosine receptor A3 is 73.7 µM; on Adenosine receptor A1 it was 3.37 µM; at Adenosine receptor A2a, 16.5 µM. Also, the Ratio in [1] was 22.

`Cn1c(=O)c2c(nc(/C=C/C(=O)O)n2C)n(C)c1=O`: affinity on Adenosine receptor A3 was put at a Ki of 130 µM. For the same compound, in test [1], the Ratio is under 1.

Turning to `CCCn1c(=O)c2nc(-c3ccc(OCC(=O)O)cc3)[nH]c2n(Cc2ccc(N)c(I)c2)c1=O`, the Ki was 1.17 µM at Adenosine receptor A3, 0.037 µM at Adenosine receptor A1 and 0.7 µM at Adenosine receptor A2a. Besides, the Ratio in test [1] came to 32.

For `CCCCn1c(=O)c2nc(CCCCC(=O)O)[nH]c2n(CCCC)c1=O`, the inhibition in test [5] stood at 13%.

For `CCCCCCn1c(=O)c2nc[nH]c2n(CCCCCC)c1=O`, the results for the inhibition in test [4] and in [2] were 14.3% and 9.2%, respectively. Also, the Ratio in test [1] is over 10.

In the case of `CCCCn1c(=O)c2[nH]cnc2n(CCCC)c1=O`, the Ki is 0.5 µM at Adenosine receptor A1 and 29.3 µM at Adenosine receptor A2a.

For the compound `CCCn1c(=O)c2nc(-c3ccc(OCC(=O)NCC(=O)O)cc3)[nH]c2n(CCC)c1=O`, the results for the Ki at Adenosine receptor A3, at Adenosine receptor A1 and on Adenosine receptor A2a were 58.5 µM, 0.073 µM and 0.455 µM, respectively. For the same compound, in [1], the Ratio is 800.

Consider `Cn1c(=O)c2c(nc(/C=C/c3cccc(NC(=O)CCC(=O)O)c3)n2C)n(C)c1=O`, for which the Ki at Adenosine receptor A3 turned out to be 189 µM; on Adenosine receptor A1 it was 20.5 µM; at Adenosine receptor A2a, 0.0129 µM. Besides, the Ratio in test [1] was determined as 9.2.

`Cn1c(=O)c2nc(CCCC(=O)O)[nH]c2n(C)c1=O`: the inhibition in [6] worked out at 26%; in [7], 0%. The Ratio in test [1] was under 1.

As to `CCCCn1c(=O)c2c(nc(/C=C/C(=O)OC)n2C)n(CCCC)c1=O`, the Ki at Adenosine receptor A1 turned out to be 0.793 µM; at Adenosine receptor A2a, 5.85 µM.

Regarding `CCCCn1c(=O)c2c(nc(/C=C/C(=O)O)n2C)n(CCCC)c1=O`, the Ki at Adenosine receptor A3 stood at 127 µM; on Adenosine receptor A1, 5.91 µM; on Adenosine receptor A2a it was 23.2 µM. For the same compound, the Ratio in test [1] is 21.
